US11175296B2, “Methods of diagnosing and treating cancer comprising ME1” (Washington University, priority 2016, dated 2021)
Where a SMILES comes first, the peptide text is derived from it. The star is where a group is joined. Cbz = O=C(OCc1ccccc1)*; CH2F = FC*

Columns and labels:
SYO-1 xenograft tumor = test: SYO-1 xenograft in nude athymic mice, tumor size; type: in vivo; settings: 1 mg/day for 12 days
Experimental: Sixty nude athymic mice (Nu/J homozygous Cat#002019, The Jackson Lab) were xenografted with 1×10^6 SYO-1 cells that had been resuspended in 1×PBS 30% Matrigel (Corning, Inc., Cat# CB-40234). Mice were anesthetized with 1-2% isofluorane and injected at the left flank. The mice were observed until each tumor size was 100 mm3 by caliper measurement, at which point each individual mouse began daily injections of DHEA 1 mg/30 uL ( ), SWV-49s 3.75 mM, SWV-273.75 mM, SV-119 3.75 mM, SWV-27/SV-119 3.75 mM, or control vehicle Cremiphor. All agents were suspended in Cremiphor. Treatment or placebo injections continued for a total of 12 days. Daily caliper and weight measurements for a total of 30 days were undertaken for each cohort. Mice were sacrificed appropriately by “ ” guidelines and after the conclusion of the in vivo experiment.

[1] = system: SYO-1 and FUJI cell lines; test: Treatment with G6PD inhibitor DHEA and DHEA analogs, cell death; type: cell-based; settings: over a course of 48 hours
Experimental: (§1) For FACS analysis, cell lines were plated at 200,000 cells per well, and incubated in various culture conditions. Media was collected in a FACS tube and samples were washed with PBS. The PBS was transferred into the FACS tube, and 0.5 mL 0.05% Trypsin/EDTA was added to each well. Samples were incubated for 5 minutes at 37° C., and diluted with 0.5 mL complete media before being transferred to the FACS tube. Wells were washed once with PBS, transferred to the FACS tube, and centrifuged at 800 g for 5 minutes at room temperature. The supernatant was aspirated off, and pellets were resuspended in 200 μL PBS (unstained control samples used for gating) or 200 μL of 1 μg/mL propidium iodide dissolved in PBS. Samples were run on a FAScan instrument and fluorescence analyzed on the Blue FL2 channel. Data was further analyzed using FloJo software.
(§2) For the evaluation of glucose deprivation alone and under additional conditions, cell lines were plated in a 6-well format at 200,000 cells per well on day 1. SYO was cultured and plated in Dulbecco's Modified Eagle Medium (DMEM) with 10% FBS and penicillin/streptomycin (include additional glucose concentration), which FUJI was cultured in RPMI medium with 10% FBS and penicillin/streptomycin. […] Samples were then ran and fluorescence analyzed via Blue FL2 channel on a FAScan instrument. […]

[2] = system: SYO-1 and FUJI synovial sarcoma (SS) cell lines; test: Pretreatment before glucose deprivation, protection from cell death (PI FACS); type: cell-based
Experimental: During the routine cell culture splitting procedure, cell lines were plated in 6 well plates at 200,000 cells in 2 mL media. Samples were incubated at 37° C. for duration of experiment. Samples were washed with PBS and detached with 0.05% Trypsin/EDTA. Aliquots were diluted 1:2 with Trypan Blue (Sigma) and a viable cell count was obtained using a hemacytometer. For glucose and glutamine deprivation experiments, 200,000 cells were plated in standard media and incubated overnight. Samples were washed 3 times with 1×DPBS (Gibco), and the media was changed to DMEM (control samples) or glucose/glutamine free DMEM (experimental samples). Cell counts were taken as previously described at 2, 4, 6, and 8 hours after the media was changed, and normalized to cell counts taken from growth samples counted at the time the media was changed.
as §1
Cell viability was determined in tissue culture experiments by the trypan blue dye exclusion test. For the evaluation of glucose deprivation, cell lines were plated in a 6-well format at 200,000 cells per well on day 1. SYO was cultured and plated in Dulbecco's Modified Eagle Medium (DMEM) with 10% FBS and penicillin/streptomycin (include additional glucose concentration), which FUJI was cultured in RPMI medium with 10% FBS and penicillin/streptomycin. The following day, glucose-containing media was removed, and each well was washed with 1-2 mL of phosphate buffered saline (PBS) three times to ensure elimination of residual glucose. Glucose-free media was then replaced in each well for the duration of the experiment. At the end point, the glucose-free media was removed and each well washed with 1 mL of PBS. One-half milliliter of trypsin 0.05% was then applied to each well, later aggressively resuspended in 0.5 mL of media for a total cell volume of 1 mL. Twenty microliters of each well was then counted via hemocytometer, excluding those non-viable cells that were positive for trypan blue uptake and/or fragmented.
For the evaluation of glucose deprivation alone and under additional conditions, cell lines were plated in a 6-well format at 200,000 cells per well on day 1. SYO was cultured and plated in Dulbecco's Modified Eagle Medium (DMEM) with 10% FBS and penicillin/streptomycin (include additional glucose concentration), which FUJI was cultured in RPMI medium with 10% FBS and penicillin/streptomycin. The following day, glucose-containing media was removed, and each well was washed with 1-2 mL of phosphate buffered saline (PBS) three times to ensure elimination of residual glucose. Glucose-free media was then replaced in each well for the duration of the experiment. […]

[3] = system: SYO-1 and FUJI cell lines; test: Erastin / sigma-2 erastin treatment, cell death; type: cell-based; settings: in as little as 8 hours, compared to control lines SKLMS-1 and MG63
Experimental: as §1, §2

[4] = Phase I open-label study of olaratumab and doxorubicin in patients with advanced soft tissue sarcoma (PK, DDI, safety)
Experimental: Patients with metastatic or locally advanced STS not amenable to treatment with surgery or curative radiotherapy, aged years with an ECOG PS of 0-2 and documented LVE fraction ≥50% were included. The primary objective was to assess the effect of Olara on the PK of Dox. Secondary objectives were to further characterize the PK and safety profiles of Olara alone and in combination with Dox. Drug-drug interaction (DDI) was assessed in 21-day cycles, where patients received each drug alone (Cycle 1) then in combination (Cycle 2). In Cycles 3-8, patients with clinical benefit could continue treatment with Olara+Dox. 15-mg/kg Olara was given IV over ˜60 min; 75-mg/m^2 Dox was given IV over ˜15 min.

[5] = pretreatment one hour prior to glucose-free media change

C[C@]12CC[C@H](O)CC1=CC[C@@H]1[C@@H]2CC[C@]2(C)C(=O)CC[C@@H]12 [DHEA, dehydroepiandrosterone]
tumor size (SYO-1 xenograft tumor): dramatic decrease in tumor size
tolerability of dose and regimen (SYO-1 xenograft tumor; murine model): well-tolerated
cell death [1]: varying but significant cell death

CC(=O)N[C@@H](CS)C(=O)O [NAC]
protection from cell death under glucose deprivation ([2]; 10 mM, pretreated one hour prior to glucose deprivation, 2 and 6 hours): protection from cell death was noted

CC(NC(=O)C(NC(=O)OCc1ccccc1)C(C)C)C(=O)NC(CC(=O)O)C(=O)CF (stereo not drawn) [ZVAD] (Cbz-Val-Ala-Asp-CH2F; configuration not given here)
protection from cell death under glucose deprivation [2, 5]: did not result in protection from cell death

Cc1c(O)c(=O)ccn1C [deferiprone]
protection from cell death under glucose deprivation ([2]; pretreated one hour prior to glucose deprivation, acute time course of 2-6 hours): significant protection from cell death

CCOc1ccccc1-n1c(C(C)N2CCN(C(=O)COc3ccc(Cl)cc3)CC2)nc2ccccc2c1=O (stereo not shown) [erastin]
cell death [3]: approximately 40%

CCOC(=O)c1ccc(NC2CCCCC2)c(N)c1 [ferrostatin]
protection from cell death under glucose deprivation [2, 5]: significant protection from glucose-deprivation mediated cell death

CN1C(=O)C(Cc2c[nH]c3ccccc23)NC1=S (stereo not shown) [necrostatin]
protection from cell death under glucose deprivation [2, 5]: did not result in protection from cell death

Olaratumab
effect on systemic exposure to Dox ([4]; IV infusion, both agents given in combination): did not have a clinically relevant effect
CL ([4]; human, in vivo): 0.0218 L/h
mean CL ([4]; human, in vivo): 0.0259 L/h
mean Cmax ([4]; human, in vivo): 393 µg/mL
median tmax post start of infusion ([4]; human, in vivo): ~2.8 h
time of Cmax post start of infusion ([4]; human, in vivo): ~2 h
mean Cmax ([4]; human, in vivo, iv, 15 mg/kg): 293 µg/mL
